Data reported in patent US20120029054A1, “RNA Interference Mediated Inhibition of GATA Binding Protein 3 (GATA3) Gene Expression Using Short Intefering Nucleic Acid (siNA)” (Merck Sharp & Dohme Corp., priority 2009, published 2012).
[invAb] = inverted abasic unit; m = 2'-O-methyl; r = 2'-OH (RNA); f = 2'-fluoro

Tests used:
GATA3 mRNA [1] = assay: GATA3 mRNA knock-down (Taqman qRT-PCR) after RNAiMax transfection of human MCF7 cells; screen and IC50 dose response; assay type: cell-based; settings: 10 nM siNA, MCF7 cells, 24 hrs, average of 3 experiments
Experimental: MCF7 (human; ATCC cat# HTB-22): Cells were cultured at 37° C. in the presence of 5% CO2 and grown in Eagle's Minimum Essential medium with supplemented with fetal bovine serum at a final concentration of 10% and 100 μg/mL of streptomycin and 100 U/mL penicillin.
(§1) Cells were plated in all wells of a tissue-culture treated, 96-well plate at a final count of 5000 cells/well in 100 μL of the appropriate culture media. The cells were cultured for 24 hours after plating at 37° C. in the presence of 5% CO2.
(§2) After 24 hours, complexes containing siNA and RNAiMax were created as follows: A solution of RNAiMax diluted 33-fold in OPTI-MEM was prepared. In parallel, solutions of the siNAs for testing were prepared to a final concentration of 120 nM in OPTI-MEM. After incubation of RNAiMax/OPTI-MEM solution at room temperature for 5 min, an equal volume of the siNA solution and the RNAiMax solution were added together for each of the siNAs.
(§3) This solution was incubated at room temperature for 20 minutes. After incubation, 20 uL of the solution was added to each of the relevant wells. The final concentration of siNA in each well was 10 nM and the final volume of RNAiMax in each well was 0.3 ul.
(§4) The time of incubation with the RNAiMax-siNA complexes was 24 hours and there was no change in media between transfection and harvesting, unless otherwise indicated.
(§5) RNA was extracted from a 96-well plate using the TaqMan® Gene Expression Cells-to-CT™ Kit (Cat#4399002) with a modified protocol. Briefly, a 60 uL (1 plate) or 110 uL (2 plates) of the Lysis Solution with DNase I was dispensed into each well of the Lysis Buffer Plate (twin.tec full skirt plate). The lysis buffer and stop plates were stored at 4° C. until the cells were washed.
(§6) The plate was spun at 1100 rpm for 5 minutes. The culture medium was aspirated and discarded from the wells of the culture plate. The lysis was performed automatically using a BioMek FX instrument and method. After the Biomek method was completed, the lysis plate was incubated for 2 min. at room temperature. The lysis plate can be stored for 2 hours at 4° C., or at −20° C. or −80° C. for two months.
(§7) Each well of the reverse transcription plate required 10 uL of 2× reverse transcriptase Buffer, 1 uL of 20× reverse transcription enzyme and 2 uL of nuclease-free water. The reverse transcription master mix was prepared by mixing 2× reverse transcription buffer, 20× reverse transcription enzyme mix, and nuclease-free water. 13 uL of the reverse transcription master mix was dispensed into each well of the reverse transcription plate (semi-skirted). A separate reverse transcription plate was prepared for each cell plate. The plate was loaded onto a Biomek NX or Biomek FX Dual-96 and the Biomek method was run. The program is programmed to automatically added 7 uL of lysate from the cell lysis procedure described above into each well of the reverse transcription plate. The plate is sealed and spun on a centrifuge (1000 rpm for 30 seconds) to settle the contents to the bottom of the reverse transcription plate. The plate is placed in a thermocycler at 37° C. for 60 min, 95° C. for 5 min, and 4° C. until the plate is removed from the thermocycler. Upon removal, if not used immediately, the plate was frozen at −20° C.
(§8) A series of probes and primers were used to detect the various mRNA transcripts of the genes of β-Actin (human cell line only), and of GATA3 and GAPDH in mouse and human cell lines. All Taqman probes and primers for the experiments here-in described were supplied as pre-validated sets by Applied Biosystems, Inc. (see Table 2).
(§9) The assays were performed on an ABI 7900 instrument, according to the manufacturer's instructions. A TaqMan Gene Expression Master Mix (provided in the Cells-to-CT™, Applied Biosystems, Cat #4399002) was used. The PCR reactions were carried out at 50° C. for 2 min, 95° C. for 20 min followed by 40 cycles at 95° C. for 15 secs and 60° C. for 1 min. […]

GATA3 mRNA [2] = assay: GATA3 mRNA knock-down (Taqman qRT-PCR) after RNAiMax transfection of mouse RAG cells; assay type: cell-based; settings: 10 nM siNA, 24 hrs, average of 2 experiments
Experimental: RAG (murine; ATCC cat# CCL-142): Cells were cultured at 37° C. in the presence of 5% CO2 and grown in Eagle's Minimum Essential medium with supplemented with 10% of fetal bovine serum, 100 μg/mL of streptomycin, and 100 U/mL penicillin.
as §1, §2, §3, §4, §5, §6, §7, §8, §9

Substance	% KD Human (GATA3 mRNA [1])	% KD Mouse (GATA3 mRNA [2])
30273-DC: GATA3 siNA duplex, mouse site 1489: sense B cuuAucAAGcccAAGcGAA TTB (SEQ 99), antisense UUCGcuuGGGcuuGAuAAGUU (SEQ 100) (sense CUUAUCAAGCCCAAGCGAATT; antisense UUCGCUUGGGCUUGAUAAGUU; sense: DNA at AGT, 2'-fluoro at CU, [invAb] at 5' end, 3' end, backbone not given here; antisense: chemistry not given here)	−3 ± 16%	33 ± 1%
30274-DC: GATA3 siNA duplex, mouse site 704: sense B cucAGuAuccGcuGAcGGA TTB (SEQ 101), antisense UCCGucAGcGGAuAcuGAGUU (SEQ 102) (sense CUCAGUAUCCGCUGACGGATT; antisense UCCGUCAGCGGAUACUGAGUU; sense: DNA at AGT, 2'-fluoro at CU, [invAb] at 5' end, 3' end, backbone not given here; antisense: sugars from the 5' end rrrmffmmfmmmfmffmmmmm, backbone not given here)	0 ± 13%	−2 ± 4%
30275-DC: GATA3 siNA duplex, mouse site 794: sense B GGGcuAcGGuGcAGAGGuA TTB (SEQ 103), antisense UACcucuGcAccGuAGcccUU (SEQ 104) (sense GGGCUACGGUGCAGAGGUATT; antisense UACCUCUGCACCGUAGCCCUU; sense: DNA at AGT, 2'-fluoro at CU, [invAb] at 5' end, 3' end, backbone not given here; antisense: sugars from the 5' end rrrffffmfmffmfmmfffmm, backbone not given here)	42 ± 8%	49 ± 7%
30276-DC: GATA3 siNA duplex, mouse site 678: sense B GGGccucGGccAuucGuAc TTB (SEQ 105), antisense GUAcGAAuGGccGAGGcccUU (SEQ 106) (sense GGGCCUCGGCCAUUCGUACTT; antisense GUACGAAUGGCCGAGGCCCUU; sense: DNA at AGT, 2'-fluoro at CU, [invAb] at 5' end, 3' end, backbone not given here; antisense: sugars from the 5' end rrrfmmmfmmffmmmmfffmm, backbone not given here)	−12 ± 16%	−2 ± 6%
30277-DC: GATA3 siNA duplex, mouse site 1535: sense B cAuccuGcGcGAAcuGucA TTB (SEQ 107), antisense UGAcAGuucGcGcAGGAuGUU (SEQ 108) (sense CAUCCUGCGCGAACUGUCATT; antisense UGACAGUUCGCGCAGGAUGUU; sense: DNA at AGT, 2'-fluoro at CU, [invAb] at 5' end, 3' end, backbone not given here; antisense: sugars from the 5' end rrrfmmfffmfmfmmmmfmmm, backbone not given here)	−4 ± 7%	26 ± 4%
30278-DC: GATA3 siNA duplex, mouse site 720: sense B GGAAGAGGuGGAcGuAcuu TTB (SEQ 109), antisense AAGuAcGuCCAccucuuccUU (SEQ 110) (sense GGAAGAGGUGGACGUACUUTT; antisense AAGUACGUCCACCUCUUCCUU; sense: DNA at AGT, 2'-fluoro at CU, [invAb] at 5' end, 3' end, backbone not given here; antisense: chemistry not given here)	−18 ± 5%	60 ± 2%
30279-DC: GATA3 siNA duplex, mouse site 1448: sense B ccuGcGGAcucuAccAuAA TTB (SEQ 111), antisense UUAuGGuAGAGuccGcAGGUU (SEQ 112) (sense CCUGCGGACUCUACCAUAATT; antisense UUAUGGUAGAGUCCGCAGGUU; sense: DNA at AGT, 2'-fluoro at CU, [invAb] at 5' end, 3' end, backbone not given here; antisense: sugars from the 5' end rrrfmmfmmmmfffmfmmmmm, backbone not given here)	−27 ± 12%	68 ± 4%
30280-DC: GATA3 siNA duplex, mouse site 1106: sense B ccGGGucGGccAGGcAAGA TTB (SEQ 113), antisense UCUuGccuGGccGAcccGGUU (SEQ 114) (sense CCGGGUCGGCCAGGCAAGATT; antisense UCUUGCCUGGCCGACCCGGUU; sense: DNA at AGT, 2'-fluoro at CU, [invAb] at 5' end, 3' end, backbone not given here; antisense: sugars from the 5' end rrrfmfffmmffmmfffmmmm, backbone not given here)	−16 ± 12%	1 ± 2%
30281-DC: GATA3 siNA duplex, human/mouse site 904: sense B ccuucuccAAGAcGuccAu TTB (SEQ 115), antisense AUGGAcGucuuGGAGAAGGUU (SEQ 116) (sense CCUUCUCCAAGACGUCCAUTT; antisense AUGGACGUCUUGGAGAAGGUU; sense: DNA at AGT, 2'-fluoro at CU, [invAb] at 5' end, 3' end, backbone not given here; antisense: sugars from the 5' end rrrmmfmffffmmmmmmmmmm, backbone not given here)	−14 ± 7%	13 ± 3%
30282-DC: GATA3 siNA duplex, human/mouse site 2587: sense B cAccAAAAuAAGAAAAGAu TTB (SEQ 117), antisense AUCuuuucuuAuuuuGGuGUU (SEQ 118) (sense CACCAAAAUAAGAAAAGAUTT; antisense AUCUUUUCUUAUUUUGGUGUU; sense: DNA at AGT, 2'-fluoro at CU, [invAb] at 5' end, 3' end, backbone not given here; antisense: sugars from the 5' end rrrfffffffmffffmmfmmm, backbone not given here)	46 ± 8%	84 ± 1%
30283-DC: GATA3 siNA duplex, human/mouse site 3067: sense B GucccuGuAAuuGuuGuuu TTB (SEQ 119), antisense AAAcAAcAAuuAcAGGGAcUU (SEQ 120) (sense GUCCCUGUAAUUGUUGUUUTT; antisense AAACAACAAUUACAGGGACUU; sense: DNA at AGT, 2'-fluoro at CU, [invAb] at 5' end, 3' end, backbone not given here; antisense: sugars from the 5' end rrrfmmfmmffmfmmmmmfmm, backbone not given here)	32 ± 5%	47 ± 1%
30284-DC: GATA3 siNA duplex, human/mouse site 2155: sense B uGcuGAAcAuuGcAuAuAA TTB (SEQ 121), antisense UUAuAuGcAAuGuucAGcAUU (SEQ 122) (sense UGCUGAACAUUGCAUAUAATT; antisense UUAUAUGCAAUGUUCAGCAUU; sense: DNA at AGT, 2'-fluoro at CU, [invAb] at 5' end, 3' end, backbone not given here; antisense: sugars from the 5' end rrrfmfmfmmfmfffmmfrmm, backbone not given here)	46 ± 5%	65 ± 0%
